Laboratory results: patent publication US8546395B2, “6-cycloamino-3-(1H-pyrrolo[2,3-b]pyridin-4-yl)imidazo[1,2-b]pyridazine derivatives, preparation thereof and therapeutic use thereof” (Sanofi, priority 2008, dated 2013)
pIC50: −log10 of the molar value.

Tests used:
[1] = molecular target: T1, casein kinase 1 epsilon (CK1 epsilon) (Homo sapiens, UniProt P49674); assay: Filter-plate assay of ATP-33P for CK1 epsilon inhibitors (phosphorylation of casein); format: biochemical; details: casein substrate, ATP-33P with 10 μM cold ATP, 2 hours at ambient temperature
T1 construct: Invitrogen Corporation (as an alternative)
Protocol: The capacity of the compounds of the invention to inhibit the phosphorylation of casein by casein kinase 1 epsilon and delta may be evaluated according to the procedure described in US 2005/0131012.
Filter-Plate Assay of ATP-^33P for the Screening of CK1 Epsilon Inhibitors:
The effect of the compounds on inhibition of the phosphorylation of casein by the enzyme casein kinase 1 epsilon (CK1 epsilon) is measured, using a casein assay with filtration of ATP-^33P in vitro.
Casein kinase 1 epsilon (0.58 mg/ml) is obtained via fermentation and purification processes performed according to methods that are well known to those skilled in the art, or may also be obtained from Invitrogen Corporation™ (human CK1 epsilon).
The compounds are tested at five different concentrations so as to generate IC50 values, i.e. the concentration at which a compound is capable of inhibiting the enzymatic activity by 50%, or alternatively the percentage of inhibition at a concentration of 10 micromolar.
“U”-bottomed Falcon plates are prepared by placing 5 μL of solutions of the compounds according to the invention at concentrations of 10, 1, 0.1, 0.01 or 0.001 μM in various wells. The solutions of the compounds according to the invention at these various concentrations are prepared by diluting in a test buffer (50 mM Tris, pH 7.5, […], 2 mM DTT and 1 mM EGTA) a stock solution in DMSO at a concentration of 10 mM. Next, 5 μL of dephosphorylated casein are added to a final concentration of 0.2 μg/μL, 20 μl of CK1 epsilon to a final concentration of 3 ng/μl, and 20 μl of ATP-^33P to a final concentration of 0.02 μCi/μl mixed with cold ATP (10 μM final—approximately 2×10^6 CPM per well). The final total test volume per well is equal to 50 μl.
The “U”-bottomed Falcon® test plate mentioned above is vortexed, and then incubated at ambient temperature for 2 hours. After 2 hours, the reaction is stopped by adding an ice-cold solution of 65 μl of ATP (2 mM) prepared in test buffer.
100 μl of the reaction mixture are then transferred from the “U”-bottomed Falcon® plate into Millipore® MAPH filter plates, preimpregnated with 25 μl of ice-cold 100% TCA. […]
The plates are left to dry overnight at ambient temperature. […] The radiation emitted by each well is then measured for 2 minutes in a Packard® Topcount NXT scintillation counter, in which the values of CPM/well are measured.
The percentage inhibition of the capacity of the enzyme to phosphorylate the substrate (casein) is determined for each concentration of compound tested. These inhibition data expressed as percentages are used to calculate the IC50 value for each compound compared with the controls.
The kinetic studies determined the KM value for ATP as being 21 μM in this test system.

human CK1 delta = molecular target: T2, human CK1 delta (Homo sapiens, UniProt P48730); assay: FRET fluorescence test (Z'Lyte kinase assay Kit), peptide substrate SER/THR 11; format: biochemical; details: peptide substrate 2 μM, ATP at 4 times the KM
T2 construct: purchased Invitrogen Corporation PV3665
Text: The capacity of the compounds of the invention to inhibit the phosphorylation of casein by casein kinase 1 epsilon and delta may be evaluated using a FRET (“Fluorescence Resonance Energy Transfer) fluorescence test with the aid of the “Z'Lyte™ kinase assay Kit” (reference PV3670; Invitrogen Corporation™) according to the manufacturer's instructions.
The casein kinases 1 used are obtained from Invitrogen Corporation (human CK1 epsilon PV3500 and human CK1 delta PV3665).
A peptide substrate, labelled at both ends with a fluorophor donor group (coumarin) and a fluorophor acceptor group (fluorescein) constituting a FRET system is phosphorylated in the presence of ATP by casein kinase 1 epsilon or delta in the presence of increasing concentrations of compounds of the invention.
The mixture is treated with a site-specific protease that specifically cleaves the peptide substrate to form two fluorescent fragments having a large fluorescence emission ratio.
The fluorescence observed is thus related to the capacity of the products of the invention to inhibit the phosphorylation of the peptide substrate by casein kinase 1 epsilon or casein kinase 1 delta.
The compounds of the invention are dissolved at different concentrations starting with a 10 mM stock solution in DMSO diluted in a buffer containing 50 mM HEPS, pH 7.5, 1 m MEGTA, 0.01% Brij-35, 10 mM MgCl2 for casein kinase 1 epsilon and supplemented with Trizma Base (50 mM), pH 8.0, and NaN3 (0.01% final) for casein kinase 1 delta.
The phosphorylation of the peptide substrate SER/THR 11 obtained from Invitrogen Corporation™ is performed at a final concentration of 2 μM. The ATP concentration is 4 times the KM, this value being 2 μM for casein kinase 1 epsilon and 4 μM for casein kinase 1 delta.
The emitted fluorescence is measured at wavelengths of 445 and 520 nm (excitation at 400 nm).

T2 sequence (P48730 whole entry): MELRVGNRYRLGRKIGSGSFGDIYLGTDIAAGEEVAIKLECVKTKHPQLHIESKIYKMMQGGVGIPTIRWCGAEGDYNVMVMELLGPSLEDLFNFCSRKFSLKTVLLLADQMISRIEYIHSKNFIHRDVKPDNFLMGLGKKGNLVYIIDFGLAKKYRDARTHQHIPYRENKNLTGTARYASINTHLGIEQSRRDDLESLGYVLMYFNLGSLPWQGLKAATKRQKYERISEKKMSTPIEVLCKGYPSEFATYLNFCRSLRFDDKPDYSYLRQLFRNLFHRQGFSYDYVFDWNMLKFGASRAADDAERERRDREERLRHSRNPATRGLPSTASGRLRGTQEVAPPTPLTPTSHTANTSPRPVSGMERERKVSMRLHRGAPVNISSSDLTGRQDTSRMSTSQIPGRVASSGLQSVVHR
T1 sequence (P49674 whole entry): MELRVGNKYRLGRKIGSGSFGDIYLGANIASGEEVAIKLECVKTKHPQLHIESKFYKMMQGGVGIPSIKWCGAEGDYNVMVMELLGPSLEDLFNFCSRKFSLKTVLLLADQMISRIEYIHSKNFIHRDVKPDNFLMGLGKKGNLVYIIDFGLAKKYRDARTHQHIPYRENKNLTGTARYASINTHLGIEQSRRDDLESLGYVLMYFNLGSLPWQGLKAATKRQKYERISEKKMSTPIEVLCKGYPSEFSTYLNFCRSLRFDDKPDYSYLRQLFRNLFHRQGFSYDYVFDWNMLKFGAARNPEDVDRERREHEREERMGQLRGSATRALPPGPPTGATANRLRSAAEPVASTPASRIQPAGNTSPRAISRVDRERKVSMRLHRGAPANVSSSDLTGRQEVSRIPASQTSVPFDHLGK

- pIC50 [1]: 8.10 to 8.30
- pIC50 (human CK1 delta): 7.72
SMILES: Fc1ccc(-c2nc3ccc(N4CCC(N5CCCC5)CC4)nn3c2-c2ccnc3[nH]ccc23)cc1 [Compound 36, 2-(4-Fluorophenyl)-6-(4-pyrrolidin-1-ylpiperidin-1-yl)-3-(1H-pyrrolo[2,3-b]pyridin-4-yl)imidazo[1,2-b]pyridazine]
